Patent US9089133B2, “Insecticide for agricultural or horticultural use and method of use thereof” (MITSUI CHEMICALS, INC., priority 2003, dated 2015)

What was measured:
[1] = test system: Common Cutworm (Spodoptera litura); experiment: Insecticidal test for common cutworm (cabbage leaf dip); format: in vivo; conditions: foliar, 72 h, cabbage leaf immersed 30 seconds, 2nd-instar larvae, 25° C., three days after
Description: Insecticidal Test for Common Cutworm (Spodoptera litura)
(§1) A cabbage leaf piece was immersed in a solution prepared by diluting a test compound to a predetermined concentration for 30 seconds, and then dried in air. Then, the cabbage leaf piece was placed in a polyethylene cup of 7 cm-size in which 2nd-instar larvae of common cutworm were placed. The cup was allowed to stand in a thermostatic chamber at 25° C. Three days after, the numbers of living and dead larvae were counted. The test was carried out in two replications each containing five larvae.

[2] = test system: Diamondback Moth (Plutella xylostella); experiment: Insecticidal test for diamondback moth (cabbage leaf dip); format: in vivo; conditions: foliar, 72 h, cabbage leaf immersed 30 seconds, 2nd-instar larvae, 25° C., three days after
Description: Insecticidal Test for Diamondback Moth (Plutella xylostella)
as §1, with “cabbage leaf pieces was immersed” for “cabbage leaf piece was immersed”, “Then, the leaf piece” for “Then, the cabbage leaf piece”

For O=C(Nc1cccc(C(=O)Nc2ccc(C(F)(F)F)cc2C(F)(F)F)c1)OCC(F)(F)C(F)(F)F [Compound No. 250, N-(2,4-bistrifluoromethylphenyl) 3-[(2,2,3,3,3-pentafluoro-n-propyloxy)carbonylamino]benzamide], which mortality at 1000 ppm [1] is on record?
The mortality at 1000 ppm was at least 70%.

What about the mortality at 1000 ppm [2] of the same compound?
Its mortality at 1000 ppm is at least 70%.
